Data from US20020032330A1, “Propionic acid derivatives” (priority 1996, published 2002).

What was measured:
KKA^y mouse = assay: Hypoglycemic and hypolipidemic effect in KKA^y mouse (oral, once a day for three days); type: in vivo; conditions: KKA^y mice, blood 18 hours after final administration
Method: The hypoglycemic effect and hypolipidemic effect were examined using KKA^y mouse which was known as insulin-independent diabetic animal. A group of KKA^y mice (9 to 11 week age) were divided into several groups based on plasma glucose concentration. Each group included mice having an equal plasma glucose concentration. To the mouse was orally administered a compound of the invention in the form of suspension in a 1% methylcellulose solution. The administration was performed once a day and for a period of three days. To the control (mouse having been administered no hypoglycemic agent) was orally administered a 1% methylcellulose solution in the same manner.
After 18 hours from the final administration, blood was collected, and the plasma glucose concentration and the triglyceride concentration were measured. The measurements were performed using commercially available measuring kits (Glucose CII-TestWako and Triglyceride G-TestWako, respectively, both available from Wako Chemicals Co., Ltd.).
The plasma glucose concentration and the triglyceride concentration were examined for each of the divided mouse groups, and their ratio (%) per the corresponding values obtained in the control was calculated.
The same tests were also performed using the comparison compounds, that is, troglitazone and pioglitazone hydrochloride, which were known as pharmaceuticals for treating diabetes.

| SMILES | Plasma glucose concentration (% per control) (KKA^y mouse; dosage 100 mg/kg) | Triglyceride concentration (% per control) (KKA^y mouse; dosage 100 mg/kg) | Plasma glucose concentration (% per control) (KKA^y mouse; dosage 30 mg/kg) | Triglyceride concentration (% per control) (KKA^y mouse; dosage 30 mg/kg) | other results |
| --- | --- | --- | --- | --- | --- |
| O=C(O)C(Cc1cnc2ccc(OCc3ccc(C(F)(F)F)cc3)cc2c1)Sc1ccccc1 (centres unmarked) [Compound 1, 3-[6-[(4-trifluoromethyl)benzyloxy]-3-quinolyl]-2-(phenylthio) propionic acid] | 68 % per control | 60 % per control |  |  |  |
| COCCOC(Cc1cc2cc(OCc3ccc(C(F)(F)F)cc3)ccc2[nH]1)C(=O)O (centres unmarked) [Compound 2, 2-(2-methoxyethoxy)-3-[5-[(4-trifluoro-methyl)benzyloxy]-2-indolyl]propionic acid] |  |  | 53 % per control | 17 % per control |  |
| CCOC(Cc1cnc2ccc(OCc3ccc(Cl)cc3)cc2c1)C(=O)O (centres unmarked) [Compound 3, 3-[6-(4-chlorobenzyloxy)-3-quinolyl]-2-ethoxypropionic acid] |  |  | 63 % per control | 66 % per control |  |
| CCOC(Cc1cnc2cc(OCc3ccc(Cl)cc3)ccc2c1)C(=O)O (centres unmarked) [Compound 4, 3-[7-(4-chlorobenzyloxy)-3-quinolyl]-2-ethoxypropionic acid] |  |  | 58 % per control | 61 % per control |  |
| O=C(O)C(Cc1cnc2cc(OCc3ccc(Cl)cc3)ccc2c1)Oc1ccccc1 (centres unmarked) [Compound 5, 3-[7-(4-chlorobenzyloxy)-3-quinolyl]-2-phenoxypropionic acid] |  |  | 77 % per control | 81 % per control |  |
| Cc1oc(-c2ccccc2)nc1CCc1noc2cc(CC(Sc3ccccc3)C(=O)O)ccc12 (centres unmarked) [Compound 6, 2-phenylthio-3-[3-[2-(2-phenyl-5-methyl-4-oxazolyl)ethyl]-1,2-benzisoxazol-6-yl]-propionic acid] | 46 % per control | 31 % per control |  |  |  |
| CCOC(Cc1ccc2c(CCc3nc(-c4ccccc4)oc3C)noc2c1)C(=O)O (centres unmarked) [Compound 7, 2-ethoxy-3-[3-[2-(2-phenyl-5-methyl-4-oxazolyl)ethyl]-1,2-benzisoxazol-6-yl]-propionic acid] |  |  |  |  | Plasma glucose concentration (% per control) (KKA^y mouse; dosage 1 mg/kg): 76 % per control; Triglyceride concentration (% per control) (KKA^y mouse; dosage 1 mg/kg): 87 % per control; Plasma glucose concentration (% per control) (KKA^y mouse; dosage 3 mg/kg): 61 % per control; Triglyceride concentration (% per control) (KKA^y mouse; dosage 3 mg/kg): 65 % per control; Plasma glucose concentration (% per control) (KKA^y mouse; dosage 10 mg/kg): 60 % per control; Triglyceride concentration (% per control) (KKA^y mouse; dosage 10 mg/kg): 45 % per control |
| CCCSC(Cc1cnc2cc(OCc3ccc(Cl)cc3)ccc2c1)C(=O)O (centres unmarked) [Example 2, 3-[7-(4-Chlorobenzyloxy)-3-quinolyl]-2-(propylthio) propionic acid] |  |  |  |  | melting point: 50 to 60 °C |
| COCCOC(Cc1cnc2cc(OCc3ccc(Cl)cc3)ccc2c1)C(=O)O (centres unmarked) [Example 6, 3-[7-(4-Chlorobenzyloxy)-3-quinolyl]-2-(2-methoxyethoxy) propionic acid] |  |  |  |  | melting point: 110 to 113 °C |
| COCCOC(Cc1cnc2ccc(OCc3ccc([N+](=O)[O-])cc3)cc2c1)C(=O)O (centres unmarked) [Example 7, 2-(2-Methoxyethoxy)-3-[6-(4-nitrobenzyloxy)-3-quinolyl]propionic acid] |  |  |  |  | melting point: 146 to 148 °C |
| CCc1ccc(CCOc2ccc(CC3SC(=O)NC3=O)cc2)nc1.Cl (centres unmarked) [Pioglitazone hydrochloride, reference compound] | 65 % per control | 69 % per control | 68 % per control | 84 % per control |  |
| Cc1c(C)c2c(c(C)c1O)CCC(C)(COc1ccc(CC3SC(=O)NC3=O)cc1)O2 (centres unmarked) [Troglitazone, reference compound] | 68 % per control | 101 % per control | 84 % per control | 99 % per control |  |
